According to PubChem BioAssay (NCI):
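Cells were grown in 96-well plates and exposed to each compound for 48 hours at five concentrations; endpoints were interpolated linearly between bracketing concentrations, or set to the highest concentration if not reached. TGI: total growth inhibition.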

How the values were obtained:
Assay in all cases: growth of human tumour cells (NCI), 48 h
[1] = test system: OVCAR-8 ovarian
[2] = test system: UACC-62 melanoma
[3] = test system: SK-OV-3 ovarian
[4] = test system: A498 renal
[5] = test system: 786-0 renal
[6] = test system: M14 melanoma
[7] = test system: UO-31 renal
[8] = test system: HOP-92 NSCLC
[9] = test system: ACHN renal
[10] = test system: MDA-N
[11] = test system: HOP-62 NSCLC
[12] = test system: HCC-2998 colon
[13] = test system: MALME-3M melanoma
[14] = test system: NCI-H522 lung
[15] = test system: SW-620 colon
[16] = test system: NCI/ADR-RES ovarian
[17] = test system: MDA-MB-435
[18] = test system: NCI-H460 lung
[19] = test system: DU-145 prostate
[20] = test system: CAKI-1 renal
[21] = test system: SNB-19 CNS
[22] = test system: LOX IMVI melanoma
[23] = test system: SK-MEL-28 melanoma
[24] = test system: NCI-H23 lung
[25] = test system: UACC-257 melanoma
[26] = test system: NCI-H226 lung
[27] = test system: K-562 leukemia
[28] = test system: OVCAR-4 ovarian
[29] = test system: EKVX NSCLC
[30] = test system: PC-3 prostate
[31] = test system: IGROV1 ovarian
[32] = test system: SF-268 CNS
[33] = test system: BT-549 breast
[34] = test system: HCT-116 colon
[35] = test system: SF-539 CNS
[36] = test system: U251 CNS
[37] = test system: OVCAR-3 ovarian
[38] = test system: RPMI-8226 leukemia
[39] = test system: SN12C renal
[40] = test system: SNB-75 CNS
[41] = test system: HL-60(TB) leukemia
[42] = test system: OVCAR-5 ovarian
[43] = test system: SK-MEL-5 melanoma
[44] = test system: SK-MEL-2 melanoma
[45] = test system: T-47D breast
[46] = test system: RXF 393 renal
[47] = test system: A549 NSCLC
[48] = test system: MDA-MB-231 breast
[49] = test system: TK-10 renal
[50] = test system: COLO 205 colon
[51] = test system: HS 578T breast
[52] = test system: CCRF-CEM leukemia
[53] = test system: HCT-15 colon
[54] = test system: HT29 colon
[55] = test system: KM12 colon
[56] = test system: SF-295 CNS
[57] = test system: MOLT-4 leukemia
[58] = test system: MCF7 breast
[59] = test system: SR leukemia

COC1C(O)C(C)OC(OC2CC3CCC4C(CCC5(C)C(C6=CC(=O)OC6)CCC45O)C3(O)C(OC(C)=O)C2)C1O (configuration not stated)
TGI [1]: 5.35 µM
TGI [2]: 5.92 µM
TGI [3]: 6.82 µM
TGI [4]: 3.5 µM
TGI [5]: > 100 µM
TGI [6]: 5.5 µM
TGI [7]: 4.51 µM
TGI [8]: 11.6 µM
TGI [9]: 2.13 µM
TGI [10]: 5.05 µM
TGI [11]: 2.59 µM
TGI [12]: 13 µM
TGI [13]: 3.74 µM
TGI [14]: 3.21 µM
TGI [15]: > 36.7 µM
TGI [16]: 6.32 µM
TGI [17]: 10.5 µM
TGI [18]: 2.74 µM
TGI [19]: 1.65 µM
TGI [20]: 3.43 µM
TGI [21]: 14.9 µM
TGI [22]: 4.7 µM
TGI [23]: > 37.6 µM
TGI [24]: 2.61 µM
TGI [25]: 16.5 µM
TGI [26]: 10.3 µM
TGI [27]: > 100 µM
TGI [28]: 17.1 µM
TGI [29]: 3.14 µM
TGI [30]: 8.77 µM
TGI [31]: 15.7 µM
TGI [32]: 2.54 µM
TGI [33]: 2020 nM
TGI [34]: 4.75 µM
TGI [35]: 1.95 µM
TGI [36]: > 24.2 µM
TGI [37]: 3.38 µM
TGI [38]: 7.55 µM
TGI [39]: 2.6 µM
TGI [40]: > 31.2 µM
TGI [41]: 4.23 µM
TGI [42]: 5.87 µM
TGI [43]: 2.03 µM
TGI [44]: 10.1 µM
TGI [45]: 12.7 µM
TGI [46]: 1.32 µM
TGI [47]: 1.41 µM
TGI [48]: 97.3 µM
TGI [49]: 6.8 µM
TGI [50]: 8.48 µM
TGI [51]: > 100 µM
TGI [52]: > 100 µM
TGI [53]: 5.41 µM
TGI [54]: 12.7 µM
TGI [55]: > 48.8 µM
TGI [56]: 8.57 µM

O=[N+]([O-])/C=C\c1c[nH]c2ccc(OCc3ccccc3)cc12
TGI [1]: 17.1 µM
TGI [2]: 14.1 µM
TGI [3]: 31.6 µM
TGI [4]: 22.6 µM
TGI [5]: 4.56 µM
TGI [57]: > 100 µM
TGI [6]: 4.49 µM
TGI [7]: 15.2 µM
TGI [8]: 19.4 µM
TGI [9]: 4.72 µM
TGI [10]: 5.56 µM
TGI [11]: 29.4 µM
TGI [12]: 3.66 µM
TGI [13]: 25.9 µM
TGI [14]: 22.4 µM
TGI [15]: 7.31 µM
TGI [16]: 50.1 µM
TGI [17]: 4.73 µM
TGI [18]: 25.1 µM
TGI [19]: 22.2 µM
TGI [20]: 53.5 µM
TGI [21]: 16.5 µM
TGI [22]: 3.5 µM
TGI [23]: 9.47 µM
TGI [58]: 73.7 µM
TGI [24]: 7.33 µM
TGI [25]: 3.73 µM
TGI [26]: 13.4 µM
TGI [27]: 6.88 µM
TGI [59]: 4.91 µM
TGI [29]: 29.3 µM
TGI [30]: 21.5 µM
TGI [31]: 15.8 µM
TGI [32]: 25.6 µM
TGI [34]: 3.27 µM
TGI [35]: 22.6 µM
TGI [36]: 19 µM
TGI [37]: 22.8 µM
TGI [38]: 4.62 µM
TGI [39]: 10 µM
TGI [41]: 8.78 µM
TGI [42]: 25.6 µM
TGI [43]: 19.2 µM
TGI [44]: 24 µM
TGI [45]: 12.4 µM
TGI [46]: 6.73 µM
TGI [47]: 14.8 µM
TGI [48]: 18 µM
TGI [49]: 23.1 µM
TGI [50]: 13.4 µM
TGI [51]: 7.24 µM
TGI [52]: > 100 µM
TGI [55]: 8.86 µM
TGI [56]: 23.8 µM

Cc1cc(=O)[nH]c(/N=C(\N)Nc2ccc(Cl)cc2)n1
TGI [1]: > 100 µM
TGI [2]: > 100 µM
TGI [4]: > 100 µM
TGI [5]: > 100 µM
TGI [57]: > 100 µM
TGI [6]: > 100 µM
TGI [7]: > 100 µM
TGI [8]: > 100 µM
TGI [9]: > 100 µM
TGI [10]: > 100 µM
TGI [11]: > 100 µM
TGI [12]: > 100 µM
TGI [13]: > 100 µM
TGI [14]: > 100 µM
TGI [15]: > 100 µM
TGI [16]: > 100 µM
TGI [17]: > 100 µM
TGI [18]: > 100 µM
TGI [19]: > 100 µM
TGI [20]: > 100 µM
TGI [21]: > 100 µM
TGI [22]: > 100 µM
TGI [23]: > 100 µM
TGI [24]: > 100 µM
TGI [25]: > 100 µM
TGI [26]: > 100 µM
TGI [27]: > 100 µM
TGI [59]: > 100 µM
TGI [29]: > 100 µM
TGI [30]: > 100 µM
TGI [31]: > 100 µM
TGI [32]: > 100 µM
TGI [33]: > 100000 nM
TGI [34]: > 100 µM
TGI [36]: > 100 µM
TGI [37]: > 100 µM
TGI [38]: > 100 µM
TGI [39]: > 100 µM
TGI [41]: > 100 µM
TGI [42]: > 100 µM
TGI [43]: > 100 µM
TGI [44]: > 100 µM
TGI [45]: > 100 µM
TGI [46]: > 100 µM
TGI [47]: > 100 µM
TGI [48]: > 100 µM
TGI [49]: > 100 µM
TGI [51]: > 100 µM
TGI [52]: > 100 µM
TGI [53]: > 100 µM
TGI [54]: > 100 µM
TGI [55]: > 100 µM
TGI [56]: > 100 µM

CSCCC(NC(=O)OCc1ccccc1)P(=O)(O)c1ccccc1 (configuration not stated)
TGI [1]: > 100 µM
TGI [3]: > 100 µM
TGI [57]: > 100 µM
TGI [6]: > 100 µM
TGI [7]: > 100 µM
TGI [8]: > 100 µM
TGI [9]: > 100 µM
TGI [10]: > 100 µM
TGI [11]: > 100 µM
TGI [12]: > 100 µM
TGI [14]: > 100 µM
TGI [15]: > 100 µM
TGI [16]: > 100 µM
TGI [17]: > 100 µM
TGI [18]: > 100 µM
TGI [19]: > 100 µM
TGI [20]: > 100 µM
TGI [21]: > 100 µM
TGI [22]: > 100 µM
TGI [23]: > 100 µM
TGI [58]: > 100 µM
TGI [24]: > 100 µM
TGI [25]: > 100 µM
TGI [26]: > 100 µM
TGI [27]: > 100 µM
TGI [28]: > 100 µM
TGI [59]: > 100 µM
TGI [30]: > 100 µM
TGI [31]: > 100 µM
TGI [34]: > 100 µM
TGI [36]: > 100 µM
TGI [37]: > 100 µM
TGI [38]: > 100 µM
TGI [39]: > 100 µM
TGI [40]: > 100 µM
TGI [41]: > 100 µM
TGI [42]: > 100 µM
TGI [43]: > 100 µM
TGI [44]: > 100 µM
TGI [45]: > 100 µM
TGI [47]: > 100 µM
TGI [48]: > 100 µM
TGI [49]: > 100 µM
TGI [50]: > 100 µM
TGI [51]: > 100 µM
TGI [52]: > 100 µM
TGI [53]: > 100 µM
TGI [54]: > 100 µM
TGI [56]: > 100 µM
